Here are results for two compounds from US11173146B2, “Selective activators of the intermediate conductance CA2+activated K+ channel KCa3.1 and their methods of use” (The Regents of the University of California, priority 2014, dated 2021).

Entries after “also recorded” stand apart in the source; their conditions may differ.

One series concerns the target T1, mKV3.1 (Mus musculus, UniProt P15388).
T1 construct: expressed in transfected cells; host or cells: L929
In words: KV3.1 current inhibition (L929 cells). It is filed as cell-based. The text has this:
Cells, Cell lines and Clones. HEK-293 cells stably expressing hKCa2.1, rKCa2.2 and hKCa3.1 were obtained from Khaled Houamed (University of Chicago, Ill.) in 2002 and have been maintained in the Wulff laboratory at the University of California since then. The cloning of hKCa2.3 (19 CAG repeats) and hKCa3.1 has been previously described (Wulff et al., 2000). The hKCa2.3 clone was later stably expressed in COS-7 cells at Aurora Biosciences Corp., San Diego, Calif. […]
Electrophysiology. […] For manual experiments COS-7, HEK-293 or L929 cells were trypsinized, plated onto poly-L-lysine coated coverslips and typically recorded from between 20 min and 4 h after plating. […] Free Ca^2+ concentrations were calculated with MaxChelator assuming a temperature of 25° C., a pH of 7.2 and an ionic strength of 160 mM. To reduce contaminating currents from native chloride channels in COS-7 cells, KCa2.3 currents were recorded with an internal pipette solution containing (in mM): 145 K^+ aspartate, 2 MgCl2, 10 HEPES, 10 EGTA and 7.4 CaCl2 (500 nM free Ca^2+), pH 7.2, 290-310 mOsm. […] KV2.1, Kv1.3, and KV3.1 currents were recorded in normal Ringer solution with a Ca^2+-free KF-based pipette solution as previously described (Schmitz et al., 2005). HERG (KV11.1) currents were recorded with a 2-step pulse from −80 mV first to 20 mV for 1 sec and then to −50 mV for 1 sec. […]

Another series deals with T2, hCaV1.2 (Homo sapiens, UniProt Q13936).
T2 construct: host or cells: HEK-293
Description: CaV1.2 current inhibition (HEK-293). It is filed as cell-based. To be noted: HEK293.

The target in the next series is KCa3.1 (Homo sapiens, UniProt O15554+P0DP23). Description: Inside-out patch Ca2+ concentration-response of KCa3.1.
In another series the test system is KCa3.1−/− mice. In words: Telemetry in KCa3.1−/− mice. To be noted: 100 mg/kg i.p.
In the next series the target is hKCa2.1 (Homo sapiens, UniProt P0DP23+Q92952). Description: Whole-cell patch-clamp KCa2.1 activation (HEK-293). (In general: In patch-clamp work, channel activity is measured electrically.)

T1 sequence (P15388 whole entry): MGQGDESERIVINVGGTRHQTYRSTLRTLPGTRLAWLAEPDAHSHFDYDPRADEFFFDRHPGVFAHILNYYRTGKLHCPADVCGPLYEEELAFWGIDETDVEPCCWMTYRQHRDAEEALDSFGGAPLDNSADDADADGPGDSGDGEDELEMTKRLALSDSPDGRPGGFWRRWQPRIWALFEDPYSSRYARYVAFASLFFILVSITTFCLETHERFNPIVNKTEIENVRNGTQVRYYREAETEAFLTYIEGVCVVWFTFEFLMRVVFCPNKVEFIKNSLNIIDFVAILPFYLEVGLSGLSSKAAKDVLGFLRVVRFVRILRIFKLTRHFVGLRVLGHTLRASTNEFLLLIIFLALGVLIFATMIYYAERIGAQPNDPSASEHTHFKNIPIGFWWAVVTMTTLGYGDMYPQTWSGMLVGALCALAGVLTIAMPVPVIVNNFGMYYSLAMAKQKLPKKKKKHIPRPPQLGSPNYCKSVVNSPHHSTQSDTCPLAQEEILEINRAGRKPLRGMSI
T2 sequence (Q13936 whole entry): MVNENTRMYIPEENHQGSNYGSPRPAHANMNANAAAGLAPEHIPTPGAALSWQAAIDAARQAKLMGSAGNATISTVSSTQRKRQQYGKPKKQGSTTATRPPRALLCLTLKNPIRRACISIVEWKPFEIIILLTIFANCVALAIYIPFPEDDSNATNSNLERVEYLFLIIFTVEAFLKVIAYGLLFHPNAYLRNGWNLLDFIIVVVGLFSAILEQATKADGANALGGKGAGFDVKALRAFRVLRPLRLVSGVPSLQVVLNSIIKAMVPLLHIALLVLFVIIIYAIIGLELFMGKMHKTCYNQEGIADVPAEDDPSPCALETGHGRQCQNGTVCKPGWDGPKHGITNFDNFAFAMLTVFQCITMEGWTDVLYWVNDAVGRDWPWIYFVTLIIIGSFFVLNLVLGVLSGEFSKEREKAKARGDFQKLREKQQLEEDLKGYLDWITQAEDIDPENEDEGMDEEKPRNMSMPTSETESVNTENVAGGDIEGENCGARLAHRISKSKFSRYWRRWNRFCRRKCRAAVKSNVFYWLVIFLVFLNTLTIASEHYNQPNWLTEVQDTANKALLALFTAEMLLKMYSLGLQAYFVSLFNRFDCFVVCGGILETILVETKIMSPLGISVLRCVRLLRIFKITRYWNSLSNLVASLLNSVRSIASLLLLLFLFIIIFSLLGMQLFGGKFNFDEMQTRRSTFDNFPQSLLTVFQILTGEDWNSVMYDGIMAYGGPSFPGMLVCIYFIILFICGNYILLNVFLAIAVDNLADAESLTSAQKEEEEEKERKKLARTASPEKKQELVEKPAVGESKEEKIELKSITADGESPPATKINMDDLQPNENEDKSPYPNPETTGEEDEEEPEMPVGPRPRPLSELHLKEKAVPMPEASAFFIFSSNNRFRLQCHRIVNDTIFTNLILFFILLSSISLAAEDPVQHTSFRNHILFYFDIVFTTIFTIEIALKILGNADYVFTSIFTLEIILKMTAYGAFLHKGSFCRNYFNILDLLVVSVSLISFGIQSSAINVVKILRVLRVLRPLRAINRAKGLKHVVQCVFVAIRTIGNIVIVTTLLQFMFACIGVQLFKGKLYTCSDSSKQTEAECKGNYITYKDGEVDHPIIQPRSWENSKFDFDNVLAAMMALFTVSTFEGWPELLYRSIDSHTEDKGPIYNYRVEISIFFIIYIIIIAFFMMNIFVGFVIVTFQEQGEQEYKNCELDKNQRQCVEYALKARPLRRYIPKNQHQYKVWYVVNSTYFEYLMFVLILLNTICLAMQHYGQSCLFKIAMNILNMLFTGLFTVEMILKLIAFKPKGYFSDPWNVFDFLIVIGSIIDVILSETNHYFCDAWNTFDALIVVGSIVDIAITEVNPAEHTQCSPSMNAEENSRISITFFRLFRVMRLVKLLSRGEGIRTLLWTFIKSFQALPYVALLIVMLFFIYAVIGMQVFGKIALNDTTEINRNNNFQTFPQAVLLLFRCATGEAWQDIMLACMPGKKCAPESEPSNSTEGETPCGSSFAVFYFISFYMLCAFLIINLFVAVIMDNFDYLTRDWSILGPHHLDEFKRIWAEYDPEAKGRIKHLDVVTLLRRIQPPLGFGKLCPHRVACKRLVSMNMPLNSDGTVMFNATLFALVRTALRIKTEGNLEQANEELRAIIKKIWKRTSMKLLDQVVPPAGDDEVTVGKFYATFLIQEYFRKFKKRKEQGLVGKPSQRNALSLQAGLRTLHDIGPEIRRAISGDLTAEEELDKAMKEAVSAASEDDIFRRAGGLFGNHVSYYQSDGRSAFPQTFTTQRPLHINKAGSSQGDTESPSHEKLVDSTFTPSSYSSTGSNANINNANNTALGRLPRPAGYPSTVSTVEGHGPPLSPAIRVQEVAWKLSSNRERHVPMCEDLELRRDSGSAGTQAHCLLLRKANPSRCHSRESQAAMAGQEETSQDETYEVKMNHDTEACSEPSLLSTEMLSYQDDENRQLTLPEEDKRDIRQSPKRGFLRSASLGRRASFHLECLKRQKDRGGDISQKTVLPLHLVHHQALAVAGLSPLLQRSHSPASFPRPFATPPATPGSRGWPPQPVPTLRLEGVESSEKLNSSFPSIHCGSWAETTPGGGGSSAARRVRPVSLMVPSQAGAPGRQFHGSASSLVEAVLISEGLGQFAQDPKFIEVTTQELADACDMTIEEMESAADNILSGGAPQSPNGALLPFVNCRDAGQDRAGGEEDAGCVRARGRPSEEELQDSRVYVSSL

The inhibition is how much of the control response was suppressed. In the case of `Cc1cc2sc(N)nc2c2ccccc12` [SKA-111, 5-methylnaphtho[1,2-d]thiazol-2-amine], the inhibition at 25 µM on mKV3.1 (at 25 μM) came out at 32.9 ± 1.3%; against hCaV1.2 (at 25 μM), 49.5 ± 17%.
For orientation: EC50 means the midpoint of the concentration-response curve. Read a high EC50 as lower potency in that assay. Turning to `Cc1cc2nc(N)oc2c2ccccc12` [SKA-121, 5-Methylnaphtho[2,1-d]oxazol-2-amine], the inhibition at 50 µM at mKV3.1 (at 50 μM) was found to be 46.3 ± 16.5%; against hCaV1.2 (at 50 μM), 48.9 ± 2.7%. The “maximal achievable KCa3.1 current” value on KCa3.1 (1 μM SKA-121, at 1 and 10 μM Ca2+) is listed as “increased the maximal achievable current”. The “Hill coefficient of the Ca2+ concentration-response curve” value at KCa3.1 (in presence of 1 μM SKA-121) is on record as roughly 3. The “HR” value in the series on KCa3.1−/− mice is given as “did not; also recorded: no significant effects”. Also, the “MAP” value with KCa3.1−/− mice is on record as “did not; also recorded: no significant effects”. On hKCa2.1, this compound showed an EC50 of 8.7 ± 1.6 µM. In addition, the “Hill coefficient nH, KCa2.1 concentration-response curve” value on hKCa2.1 (FIG. 4 legend) was found to be 4.1.
